{"source": "ChEMBL document CHEMBL1122359", "about": "“Improved delivery through biological membranes. 13. Brain-specific delivery of dopamine with a dihydropyridine in equilibrium with pyridinium salt type redox delivery system” (1983)", "type_in_all_cases": "functional", "key": {"Rattus norvegicus [1]": {"species_on_record": "Rattus norvegicus", "experiment": "Percent decrease in serum prolactin concentration in male rats"}, "Rattus norvegicus [2]": {"species_on_record": "Rattus norvegicus", "experiment": "In vitro Inhibitory activity against prolactin release in anterior pituitary from adult female rats(Charles Rivers Labs) at a concentration of 2*10e-8M"}, "Rattus norvegicus [3]": {"species_on_record": "Rattus norvegicus", "experiment": "In vitro Inhibitory activity against prolactin release in anterior pituitary from adult female rats(Charles Rivers Labs), at a concentration of 2*10e-7M"}, "Rattus norvegicus [4]": {"tested_on": "Rattus norvegicus", "experiment": "In vitro Weight change in anterior pituitary after the administration of the compound"}}}
{"smiles": "CN1C=CCC(C(=O)NCCc2ccc(OC(=O)C(C)(C)C)c(OC(=O)C(C)(C)C)c2)=C1", "values": [{"measurement": "Decrease", "setting": "Rattus norvegicus [1]", "result": 79, "unit": "%"}]}
{"smiles": "NCCc1ccc(O)c(O)c1", "note": "[DOPAMINE]", "values": [{"measurement": "Prolactin release rate", "setting": "Rattus norvegicus [2]", "result": 355, "unit": "ng/mg/h"}]}
{"smiles": "C[n+]1cccc(C(=O)NCCc2ccc(O)c(O)c2)c1.[I-]", "values": [{"measurement": "Decrease", "setting": "Rattus norvegicus [1]", "result": 67, "unit": "%"}, {"measurement": "Prolactin release rate", "setting": "Rattus norvegicus [3]", "result": 277, "unit": "ng/mg/h"}, {"measurement": "Prolactin release rate", "setting": "Rattus norvegicus [2]", "result": 386, "unit": "ng/mg/h"}, {"measurement": "Weight change of AP-S", "setting": "Rattus norvegicus [4]", "result": 4.7, "unit": "mg"}]}
